Results as given in patent publication US12661410B2, “Compounds for targeted degradation of RET” (C4 Therapeutics, Inc., priority 2020, dated 2026).
Changes are numbered by the printed parent chain. Like-named read-outs stand apart in the source and are kept apart here.

Experiments:
RET (658-1114) = target: T1, RET (658-1114) (Homo sapiens, UniProt P07949); assay: HiBiT-Degradation, RET wild-type degradation assay (Nano-Glo HiBiT Lytic), 293T.144 cells; assay type: cell-based; conditions: for Emax / DC50: 6.0 hours; for Emax: read-out: 293T.144 RET (658-1114) 6.0 hours (Emax); for DC50: read-out: 293T.144 RET (658-1114) 6.0 hours (DC50)
T1 construct: 658-1114; expressed in transfected cells; host or cells: 293T.144 (293T cells, generated in-house)
T1 sequence (P07949 658-1114): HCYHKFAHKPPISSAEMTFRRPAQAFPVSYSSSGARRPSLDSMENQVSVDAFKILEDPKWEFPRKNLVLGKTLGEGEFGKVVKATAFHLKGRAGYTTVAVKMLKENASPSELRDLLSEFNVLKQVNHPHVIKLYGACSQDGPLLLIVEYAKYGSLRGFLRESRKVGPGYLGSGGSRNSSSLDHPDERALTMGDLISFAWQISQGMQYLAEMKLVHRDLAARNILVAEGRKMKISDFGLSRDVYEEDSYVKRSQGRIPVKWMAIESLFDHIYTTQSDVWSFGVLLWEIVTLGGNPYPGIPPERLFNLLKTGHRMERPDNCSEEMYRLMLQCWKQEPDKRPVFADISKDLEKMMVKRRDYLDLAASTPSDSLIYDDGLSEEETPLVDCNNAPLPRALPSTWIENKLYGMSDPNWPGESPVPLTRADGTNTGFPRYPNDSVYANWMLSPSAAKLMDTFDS
Summary of the method: (§1)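 HEK293T lines stably expressing HiBiT-tagged RET kinase domain (WT: 293T.144; G810R: 293T.165) were treated with degraders for 6 h in duplicate, 11-point half-log series from 10 μM top dose. Lysis with Nano-Glo HiBiT Lytic reagent, luminescence read; DC50 and Emax (% remaining protein) derived from dose-response curves.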

RET(KD: 658-1114 G810R) = target: T2, RET(KD: 658-1114 G810R) (Homo sapiens, UniProt P07949, G810R); assay: HiBiT-Degradation, RET G810R degradation assay (Nano-Glo HiBiT Lytic), 293T.165 cells; assay type: cell-based; conditions: for Emax / DC50: 6.0 hours; for Emax: % remaining protein, read-out: 293T.165 RET(KD: 658-1114 G810R) 6.0 hours (Emax); for DC50: read-out: 293T.165 RET(KD: 658-1114 G810R) 6.0 hours (DC50)
T2 construct: 658-1114; expressed in transfected cells; host or cells: 293T.165 (293T cells, generated in-house)
T2 sequence (P07949 658-1114 G810R): T1 sequence (P07949 658-1114) with G153R
Summary of the method: as §1

[1] = half-maximal degradation concentration

SMILES | 293T.144 RET (658-1114) 6.0 hours (IP) [nM] (RET (658-1114)) | Emax (RET (658-1114); % remaining protein) [%] | DC50 (RET (658-1114); [1]) [nM] | 293T.165 RET(KD: 658-1114 G810R) 6.0 hours (IP) [nM] (RET(KD: 658-1114 G810R)) | Emax (RET(KD: 658-1114 G810R)) [%] | DC50 (RET(KD: 658-1114 G810R); [1]) [nM] | 293T.144 RET (658-1114) 6.0 hours (IP) [nM] (RET (658-1114); HiBiT-Degradation) | DC50 (RET (658-1114); HiBiT-Degradation) [nM] | Emax (RET (658-1114); HiBiT-Degradation) [%] | 293T.165 RET(KD: 658-1114 G810R) 6.0 hours (Emax) (RET(KD: 658-1114 G810R); HiBiT-Degradation) | 293T.165 RET(KD: 658-1114 G810R) 6.0 hours (IP) [nM] (RET(KD: 658-1114 G810R); HiBiT-Degradation) | DC50 (RET(KD: 658-1114 G810R); HiBiT-Degradation) [nM]
Cn1nc(N2CCC(=O)NC2=O)c2ccc(C3CCN(CC(=O)N4CCC(n5cc(-c6cc(-c7ccc(N8CCN(Cc9ccccn9)CC8)nc7)c7c(C#N)cnn7c6)cn5)CC4)CC3)cc21 [Compound 13, 6-(1-(1-(2-(4-(3-(2,4-dioxotetrahydropyrimidin-1(2H)-yl)-1-methyl-1H-indazol-6-yl)piperidin-1-yl)acetyl)piperidin-4-yl)-1H-pyrazol-4-yl)-4-(6-(4-(pyridin-2-ylmethyl)piperazin-1-yl)pyridin-3-yl)pyrazolo[1,5-a]pyridine-3-carbonitrile] |  |  |  |  | < 50 | < 100 | ++++ (< 50 nM = ++++) | < 50 | < 30 | +++ (<50% = +++) | ++++ (< 50 nM = ++++) | < 100
N#Cc1cnn2cc(-c3cnn([C@H]4CC[C@@H](N5CCN(c6ccc(N[C@H]7CCC(=O)NC7=O)cc6F)CC5)CC4)c3)nc(-c3ccc(N4CC5CC(C4)N5C(=O)c4c(F)cccc4F)nc3)c12 (single isomer, unassigned) [Compound 171] | ++++ (<50 nM = ++++) | < 30 | < 50 | ++++ (<50 nM = ++++) | < 30 | < 50 |  |  |  |  |  | 
CCC1(C(=O)NC(C)C)CCN(c2ccc(-c3cc(-c4ccc(N5CCN(C(=O)CN6CCC(c7ccc8c(N9CCC(=O)NC9=O)nn(C)c8c7)CC6)CC5)cc4)cn4ncc(C#N)c34)cn2)CC1 [Compound 64, 1-[5-[3-cyano-6-[4-[4-[2-[4-[3-(2,4-dioxohexahydropyrimidin-1-yl)-1-methyl-indazol-6-yl]-1-piperidyl]acetyl]piperazin-1-yl]phenyl]pyrazolo[1,5-a]pyridin-4-yl]-2-pyridyl]-4-ethyl-N-isopropyl-piperidine-4-carboxamide] |  |  |  |  | < 30 | < 100 | ++++ (< 50 nM = ++++) | < 50 | < 30 | ++++ (< 30% = ++++) | ++++ (< 50 nM = ++++) | < 100
CC(=O)N1CCN(c2ccc(-c3cc(-c4ccc(N5CCN(C(=O)CN6CCC(c7ccc(NC8CCC(=O)NC8=O)cc7)CC6)CC5)cc4)cn4ncc(C#N)c34)cn2)CC1 (stereo not drawn) [Compound 41, 4-[6-(4-acetylpiperazin-1-yl)-3-pyridyl]-6-[4-[4-[2-[4-[4-[(2,6-dioxo-3-piperidyl)amino]phenyl]-1-piperidyl]acetyl]piperazin-1-yl]phenyl]pyrazolo[1,5-a]pyridine-3-carbonitrile] |  |  |  |  | < 50 | < 100 | ++++ (< 50 nM = ++++) | < 50 | < 30 | +++ (<50% = +++) | ++++ (< 50 nM = ++++) | < 100
CCC1(C(=O)NC(C)C)CCN(c2ncc(-c3nc(-c4cnn(C5CCN(C(=O)CC6(O)CCN(c7ccc(NC8CCC(=O)NC8=O)cc7F)CC6)CC5)c4)cn4ncc(C#N)c34)cc2F)CC1 (stereo not drawn) [Compound 119, 1-(5-(3-cyano-6-(1-(1-(2-(1-(4-((2,6-dioxopiperidin-3-yl)amino)-2-fluorophenyl)-4-hydroxypiperidin-4-yl)acetyl)piperidin-4-yl)-1H-pyrazol-4-yl)pyrazolo[1,5-a]pyrazin-4-yl)-3-fluoropyridin-2-yl)-4-ethyl-N-isopropylpiperidine-4-carboxamide] | ++++ (<50 nM = ++++) | < 30 | < 50 | ++++ (<50 nM = ++++) | < 50 | < 100 |  |  |  |  |  | 

Continued, values first:

293T.144 RET (658-1114) 6.0 hours (IP) [nM] (RET (658-1114)) | Emax (RET (658-1114); % remaining protein) [%] | DC50 (RET (658-1114); [1]) [nM] | 293T.165 RET(KD: 658-1114 G810R) 6.0 hours (IP) [nM] (RET(KD: 658-1114 G810R)) | Emax (RET(KD: 658-1114 G810R)) [%] | DC50 (RET(KD: 658-1114 G810R); [1]) [nM] | 293T.144 RET (658-1114) 6.0 hours (IP) [nM] (RET (658-1114); HiBiT-Degradation) | DC50 (RET (658-1114); HiBiT-Degradation) [nM] | Emax (RET (658-1114); HiBiT-Degradation) [%] | 293T.165 RET(KD: 658-1114 G810R) 6.0 hours (Emax) (RET(KD: 658-1114 G810R); HiBiT-Degradation) | 293T.165 RET(KD: 658-1114 G810R) 6.0 hours (IP) [nM] (RET(KD: 658-1114 G810R); HiBiT-Degradation) | DC50 (RET(KD: 658-1114 G810R); HiBiT-Degradation) [nM] | SMILES
++++ (<50 nM = ++++) | < 30 | < 50 | ++++ (<50 nM = ++++) | < 30 | < 50 |  |  |  |  |  |  | COc1ccc(CC2(O)CCN(c3ccc(-c4nc(-c5cnn([C@H]6CC[C@H](N7CCN(c8cc(OC)c(NC9CCC(=O)NC9=O)cc8F)CC7)CC6)c5)cn5ncc(C#N)c45)cn3)CC2)nc1 (stereo partly drawn) [Compound 215, 6-[1-[4-[4-[4-[(2,6-dioxo-3-piperidyl)amino]-2-fluoro-5-methoxy-phenyl]piperazin-1-yl]cyclohexyl]pyrazol-4-yl]-4-[6-[4-hydroxy-4-[(5-methoxy-2-pyridyl)methyl]-1-piperidyl]-3-pyridyl]pyrazolo[1,5-a]pyrazine-3-carbonitrile]
 |  |  |  | < 30 | < 50 | ++++ (< 50 nM = ++++) | < 50 | < 30 | ++++ (< 30% = ++++) | ++++ (< 50 nM = ++++) | < 50 | CCC1(C(=O)NC(C)C)CCN(c2ccc(-c3cc(-c4ccc(N5CCC(O)(CCN6CCC(c7ccc(NC8CCC(=O)NC8=O)cc7F)CC6)CC5)cc4)cn4ncc(C#N)c34)cn2)CC1 (stereo not drawn) [Compound 39, 1-(5-(3-Cyano-6-(4-(4-(2-(4-(4-((2,6-dioxopiperidin-3-yl)amino)-2-fluorophenyl)piperidin-1-yl)ethyl)-4-hydroxypiperidin-1-yl)phenyl)pyrazolo[1,5-a]pyridin-4-yl)pyridin-2-yl)-4-ethyl-N-isopropylpiperidine-4-carboxamide]
 |  |  |  | < 50 | < 50 | ++++ (< 50 nM = ++++) | < 50 | < 30 | +++ (<50% = +++) | ++++ (< 50 nM = ++++) | < 50 | CCC1(C(=O)NC(C)C)CCN(c2ccc(-c3cc(-c4cnn(C5CCN(C(=O)CN6CCC(c7ccc(NC8CCC(=O)NC8=O)cc7F)CC6)CC5)c4)cn4ncc(C#N)c34)cc2)CC1 (stereo not drawn) [Compound 58, 1-[4-[3-cyano-6-[1-[1-[2-[4-[4-[(2,6-dioxo-3-piperidyl)amino]-2-fluoro-phenyl]-1-piperidyl]acetyl]-4-piperidyl]pyrazol-4-yl]pyrazolo[1,5-a]pyridin-4-yl]phenyl]-4-ethyl-N-isopropyl-piperidine-4-carboxamide]
 |  |  |  | < 30 | < 50 | ++++ (< 50 nM = ++++) | < 50 | < 30 | ++++ (< 30% = ++++) | ++++ (< 50 nM = ++++) | < 50 | CC(=O)N1CCN(c2ccc(-c3nc(-c4ccc(N5CCN(C(=O)CN6CCC(c7ccc(NC8CCC(=O)NC8=O)cc7)CC6)CC5)cc4)cn4ncc(C#N)c34)cn2)CC1 (stereo not drawn) [Compound 27, 4-(6-(4-acetylpiperazin-1-yl)pyridin-3-yl)-6-(4-(4-(2-(4-(4-((2,6-dioxopiperidin-3-yl)amino)phenyl)piperidin-1-yl)acetyl)piperazin-1-yl)phenyl)pyrazolo[1,5-a]pyrazine-3-carbonitrile]
++++ (<50 nM = ++++) | < 30 | < 50 | ++++ (<50 nM = ++++) | < 30 | < 50 |  |  |  |  |  |  | CCC1(C(=O)NC(C)C)CCN(c2ccc(-c3nc(-c4cnn(C5CCN(C(=O)CC6(O)CCN(c7ccc(NC8CCC(=O)NC8=O)cc7Br)CC6)CC5)c4)cn4ncc(C#N)c34)cn2)CC1 (stereo not drawn) [Compound 95, 1-[5-[6-[1-[1-[2-[1-[2-bromo-4-[(2,6-dioxo-3-piperidyl)amino]phenyl]-4-hydroxy-4-piperidyl]acetyl]-4-piperidyl]pyrazol-4-yl]-3-cyano-pyrazolo[1,5-a]pyrazin-4-yl]-2-pyridyl]-4-ethyl-N-isopropyl-piperidine-4-carboxamide]
